Assay results reported in patent US5589373A, “Thermostable alkaline metalloprotease produced by a hyphomonas and preparation thereof” (priority 1995, dated 1996).
Entries after “also recorded” stand apart in the source; their conditions may differ. Read-outs that look alike come from different tables or passages of the source.

Tests used:
[1] = system: H. jannaschiana extracellular protease; assay: Effect of amino acids, casamino acids or (NH4)2SO4 on cell-free protease suspension (azocasein assay); assay type: biochemical, Hyphomonas jannaschiana VP3; set-up: Enzyme activity (%) in cell free supernatant: concentration or dose not given beside the values; settings: for Enzyme activity (%) in cell free supernatant: cell-free protease suspension, 10 minute incubation, same additions, control = 100
Procedure: (§1) Samples of the cell culture supernatants, the toluenized cells, and the cell lysates were each tested for protease activity using an azocasein assay, such as described by Long et al., J. Gen. Microbiol. 127:193-199 (1981). One unit of enzyme activity was considered equivalent to an increased absorbance of 0.1 units at a wavelength of 440 nm after a 30 minute incubation at 42° C.
In the alternative, after allowing protease synthesis and export to proceed for 2.5 hours, the cells were removed by centrifugation, and the supernatant was passed through a 0.22 μm filter. The cell-free protease suspension was then treated, as described above, with single amino acids, casamino acids, or (NH4)2 SO4. Then, enzyme activity was determined following a 10 minute incubation period.

[2] = system: H. jannaschiana stationary phase cells; assay: Repression of exoprotease synthesis in stationary phase cells in growth media (azocasein assay); assay type: cell-based, Hyphomonas jannaschiana VP3; settings: for activity / activity at 100000 µM: Hyphomonas jannaschiana, read-out: Enzyme activity (%) in growth media
Procedure: as §1
The stationary phase cells were resuspended in a one-tenth volume of MB, then incubated for 30 minutes at 37° C. Exoprotease activity was determined at hourly intervals following introduction of single amino acids at a final concentrations of 0.1% (v/v) o The assay was conducted over a period of 3 hours.
In a similar manner, protease activity was determined following the introduction of 100 mM (NH4)2 SO4 (ammonium sulfate) or 1% casamino acids to the growth medium.

[3] = system: H. jannaschiana exoprotease; assay: Recovery of chemically inhibited protease activity by Zn2+ and Ca2+; assay type: biochemical, Hyphomonas jannaschiana VP3; settings: for restoration of activity to EDTA-inactivated enzyme: 100 mM EDTA, ZnCl2 or CaCl2, 25° C.; for effect of additional ions on activity of the native protease: no inhibitor
Procedure: The ability of the divalent cations Zn^2+ and Ca^2+ to restore enzyme activity to inactivated exoprotease was examined by introducing either 5 mM ZnCl2 or 100 mM CaCl2 at a 1:1 molar ratio of ion to inhibitor to the preparations described in Example 4. Following incubation at 25° C. for 15 minutes, protease activity was assayed.

[4] = system: H. jannaschiana exoprotease; assay: Chemical inhibition of protease activity in filtered culture supernatant; assay type: biochemical, Hyphomonas jannaschiana VP3; settings: for exoprotease activity in additional assays, data not shown (in words): concentration not given; for protease activity after exposure to inhibitor (in words): 5 mM o-phenanthroline, 60 mM PMSF, 100 mM EDTA, 80 mM EGTA
Procedure: as §1
The effect of various protease inhibitors on the production of H. jannaschiana exoprotease was tested by measuring protease activity following the incubation of the cells with each inhibitor. Stationary phase cells, grown in MB, were pelleted and resuspended in fresh media at one-tenth of the original culture volume. The cell suspension was incubated at 37° C. for 2.5 hours to permit synthesis and export of exoprotease into the culture supernatant. Then the cells were removed by centrifugation and the supernatant was sterilized by filtration through a 0.22 μm filter.
Protease activity was measured after exposure to each inhibitor at 25° C. for 15 minutes. The inhibitors were added at the following final concentrations: 5 mM o-phenanthroline, 60 mM […] (PMSF), 10 mM and 25 mM p-chloromercuribenzoic acid (pCMB), 100 mM EDTA, 80 mM ethylene glycol bis(beta-amino-ethylether)N,N,N',N'-tetraacetic acid (EGTA).
Each bar represents treatment of the exoprotease with the following: 1=untreated exoprotease; 2=o-phenan-throline; 3=o-phenanthroline and ZnCl; 4=ZnCl; 5=EGTA; 6=EGTA and CaCl; 7=CaCl; 8=EDTA; 9=EDTA and ZnCl; 10=EDTA and CaCl; 11=pCMB (10 mM, final conc.); 12=pCMB (25 mM, final conc.); and 13=PMSF. The enzyme activity was expressed as a percentage of the activity measured in the untreated control.

[5] = system: actively growing culture of H. jannaschiana; assay: Quinacrine on an actively growing culture (optical density and extracellular enzyme activity); assay type: cell-based, Hyphomonas jannaschiana; settings: 0.025 mM quinacrine
Procedure: (§2) Thus, protease export was examined in the presence of quinacrine, a signal peptidase inhibitor. Protease export in the presence of quinacrine was examined using two approaches. An actively growing culture of H. jannaschiana was monitored with respect to both optical density at 550 nm and extracellular enzyme activity in the presence of 0.025 mM quinacrine. In order to eliminate the effect of quinacrine on H. jannaschiana growth, cells were initially propagated to stationary phase, and subsequently maintained in the non-proliferating state by 10-fold concentration in fresh media which was supplemented with 0.025 mM quinacrine.

[6] = system: H. jannaschiana stationary phase cells; assay: Inhibition of protease export by quinacrine in non-proliferating stationary phase cells; assay type: cell-based; settings: Hyphomonas jannaschiana; for activity at 25 µM: 0.025 mM quinacrine, read-out: Enzyme activity relative to untreated control
Procedure: as §2

[7] = system: functional extracellular protease; assay: Quinacrine on functional extracellular protease activity; assay type: biochemical, Hyphomonas jannaschiana
[8] = Thermal stability of H. jannaschiana exoprotease (azocasein assay); assay type: physicochemical, Hyphomonas jannaschiana; settings: for enzyme activity remaining after incubation at 75° C. for 30 minutes: filtered stationary phase culture supernatant, pH 9
Procedure: Filtered supernatant containing Hyphomonas jannaschiana exoprotease was maintained at 75° C. and 100° C. for various periods of time. Then, the enzyme was allowed to recalibrate to 25° C., and subsequently assayed for protease activity using the azocasein assay.

[9] = Properties of the purified thermostable alkaline metalloprotease (pH and temperature optimum, pH stability, pI); set-up: species or system Hyphomonas jannaschiana
[10] = stationary phase cells in one-tenth volume MB, 37° C., single amino acids 0.1% (v/v), 100 mM (NH4)2SO4 or 1% casamino acids, control = 100
[11] = stationary phase cells in one-tenth volume MB, 37° C., single amino acids 0.1% (v/v), control = 100
[12] = listed as alkaline exoprotease produced by H. jannaschiana

N.N.O=S(=O)(O)O [(NH4)2 SO4, ammonium sulfate]
Enzyme activity (%) in cell free supernatant [1]: 100% | extracellular enzyme activity in cell-free growth media (in words) ([1]; exposed to the added substance): no affect | reduction in the synthesis of the exoprotease ([2]; 100 mM (NH4)2SO4): approximately 50% | Enzyme activity (%) in growth media [2, 10]: 56%

[Ca+2].[Cl-].[Cl-] [Ca^2+, CaCl2]
restoration of activity to EGTA-inhibited exoprotease ([3]; 80 mM EGTA, CaCl2 at 1:1 ion to inhibitor, 25° C., 15 minutes): reversible; also recorded: restored | restoration of activity to EDTA-inactivated enzyme ([3]; 15 minutes): partially restored | effect of additional ions on activity of the native protease [3]: no detectable effect

CC(C)CC(NC(=O)C1OC1C(=O)O)C(=O)NCCCCNC(=N)N (centres unmarked) [E64]
exoprotease activity in additional assays, data not shown (in words) [4]: not affected

O=C(O)CN(CCN(CC(=O)O)CC(=O)O)CC(=O)O [EDTA, ethylenediaminetetra-acetic acid]
EDTA concentration necessary to inhibit enzyme activity [4]: greater than 10^-2 M | protease activity after exposure to inhibitor (in words) ([4]; 25° C., 15 minutes): inhibited

O=C(O)CN(CCOCCOCCN(CC(=O)O)CC(=O)O)CC(=O)O [EGTA, ethylene glycol bis(beta-amino-ethylether)N,N,N',N'-tetraacetic acid]
protease activity after exposure to inhibitor (in words) ([4]; 25° C., 15 minutes): totally inhibited

O=S(=O)(F)Cc1ccccc1 [PMSF, phenylmethyl sulfonamide fluoride]
protease activity after exposure to inhibitor (in words) ([4]; 25° C., 15 minutes): unaffected; also recorded: not affected

[Cl-].[Cl-].[Zn+2] [Zn^2+, ZnCl2]
restoration of activity to o-phenanthroline-inhibited exoprotease ([3]; 5 mM o-phenanthroline, 5 mM ZnCl2, 1:1 ion to inhibitor, 25° C., 15 minutes): reactivated; also recorded: restored | restoration of activity to EDTA-inactivated enzyme ([3]; 15 minutes): partially restored | effect of additional ions on activity of the native protease [3]: significantly increased

C[C@H](N)C(=O)O [alanine]
Enzyme activity (%) in cell free supernatant [1]: 56%

N[C@@H](CC(=O)O)C(=O)O [aspartic acid]
Enzyme activity (%) in cell free supernatant [1]: 60% | activity [2, 11]: 79%

N[C@@H](CCC(=O)O)C(=O)O [glutamic acid]
Enzyme activity (%) in cell free supernatant [1]: 52% | activity at 100000 µM [2]: 86%

NC(=O)CC[C@H](N)C(=O)O [glutamine]
Enzyme activity (%) in cell free supernatant [1]: 52%

NCC(=O)O [glycine]
Enzyme activity (%) in cell free supernatant [1]: 82% | activity at 100000 µM [2, 10]: 69%

N[C@@H](Cc1c[nH]cn1)C(=O)O [histidine]
Enzyme activity (%) in cell free supernatant [1]: 83% | activity [2, 11]: 87%

CC(C)C[C@H](N)C(=O)O [leucine]
Enzyme activity (%) in cell free supernatant [1]: 69%

OCCS [mercaptoethanol]
exoprotease activity in additional assays, data not shown (in words) [4]: abolished

c1cnc2c(c1)ccc1cccnc12 [o-phenanthroline]
protease activity after exposure to inhibitor (in words) ([4]; 25° C., 15 minutes): totally inhibited

O=C(O)c1cc[c]([Hg][Cl])cc1 [pCMB, p-chloromercuribenzoic acid]
protease activity after exposure to low concentration of pCMB (in words) ([4]; 10 mM pCMB, 25° C., 15 minutes): unaffected; also recorded: not affected | protease activity after exposure to high concentration of pCMB (in words) ([4]; 25 mM pCMB, 25° C., 15 minutes): reduced

O=C(O)[C@@H]1CCCN1 [proline]
Enzyme activity (%) in cell free supernatant [1]: 93% | activity at 100000 µM [2, 10]: 108%

CCN(CC)CCCC(C)Nc1c2ccc(Cl)cc2nc2ccc(OC)cc12 (centres unmarked) [quinacrine]
cell density and exoprotease activity after an additional 6 hour growth period (in words) [5]: returned to normal levels | inhibition of growth at 25 µM ([5]; Hyphomonas jannaschiana, 7 h, seven hours after treatment, OD 550 nm, read-out: reduction of optical density of the culture vs untreated cells): 48% | inhibition at 25 µM ([5]; Hyphomonas jannaschiana, 7 h, seven hours after treatment, read-out: exoprotease activity diminished vs untreated cells): 73% | activity at 25 µM ([6]; 0.5 h, time 30 min): 100% | activity at 25 µM ([6]; 40 min, time 40 min): 33% | inhibition at 25 µM ([6]; 40 min, 40 minutes after the addition of quinacrine, read-out: reduction in exported enzyme): 67% | activity at 25 µM ([6]; 1 h, time 60 min): 50% | activity at 25 µM ([6]; 1.5 h, time 90 min): 78% | activity at 25 µM ([6]; 2 h, time 120 min): 82% | activity at 25 µM ([6]; 3 h, time 180 min): 90% | effect on functional extracellular protease activity (in words) [7]: no affect

N[C@@H](CO)C(=O)O [serine]
Enzyme activity (%) in cell free supernatant [1]: 64% | activity [2, 11]: 79%

N[C@@H](Cc1c[nH]c2ccccc12)C(=O)O [tryptophan]
Enzyme activity (%) in cell free supernatant [1]: 56%

B1: H. jannaschiana exoprotease: extracellular thermostable alkaline metalloprotease, approximately 80,000 daltons, produced by Hyphomonas jannaschiana VP3 (protein)
chain: EICRIVMDGHCEKQGDAECHDDQQSARPADQRINQDVEQVDDQFEEQGPGRNVCGINVFGS
activity remaining after boiling at 100° C. for 5 minutes [8]: at least 41% | decrease of exoprotease activity after incubation at 75° C. for 30 minutes ([8]; azocasein assay): about 40% | reduction of extracellular protease activity after 100° C. (boiling) for 5 minutes ([8]; filtered culture supernatant): 41% | enzyme activity remaining after incubation at 75° C. for 30 minutes [8]: at least 60% | enzyme activity remaining after incubation at 75° C. for 30 minutes [8, 12]: Over 60% | proteolytic activity after boiling for 5 minutes (in words) [8, 12]: failed to destroy | proteolytic activity after boiling for 5 minutes (in words) ([8]; listed as thermostable alkaline exoprotease): did not destroy | isoelectric point pI [9]: 4.8 | optimal temperature ([9]; reacted at pH 9): 45 °C | optimal pH ([9]; reaction temperature of about 60° to 65° C.): approximately 9.5
